≈ marks a conversion by molar mass, not a printed value.
Columns and labels:
Format in all cases: functional
[1] = system: Streptococcus pneumoniae; experiment: Antibacterial activity against penicillin-intermediate Streptococcus pneumoniae assessed as sub-MIC effect at 0.2 times MIC concentration incubated for 1 hr by viable plate count method
[2] = system: Escherichia coli; experiment: Antibacterial activity against Escherichia coli assessed as sub-MIC effect at 0.3 times MIC concentration incubated for 1 hr by viable plate count method
[3] = system: Streptococcus pneumoniae; experiment: Antibacterial activity against penicillin-intermediate Streptococcus pneumoniae assessed as post-antibiotic sub-MIC effect at 0.4 times MIC concentration pretreated with 10 times MIC concentration for 1 hr followed by 1:1000 dilution by viable plate count method
[4] = system: Acinetobacter baumannii; experiment: Antibacterial activity against multidrug-resistant Acinetobacter baumannii producing OXA-24 and OXA-51 beta-lactamases assessed as post antibiotic effect at 2 times MIC concentration incubated for 1 hr measured after 1:1000 dilution by viable plate count method
[5] = system: Klebsiella pneumoniae; experiment: Antibacterial activity against Klebsiella pneumoniae assessed as post-antibiotic sub-MIC effect at 0.2 times MIC concentration pretreated with 10 times MIC concentration for 1 hr followed by 1:1000 dilution by viable plate count method
[6] = system: Haemophilus influenzae; experiment: Antibacterial activity against amoxicillin, clavulanate-resistant Haemophilus influenzae expressing beta-lactamase assessed as post-antibiotic sub-MIC effect at 0.2 times MIC concentration pretreated with 10 times MIC concentration for 1 hr followed by 1:1000 dilution by viable plate count method
[7] = system: Streptococcus pneumoniae; experiment: Antibacterial activity against penicillin-intermediate Streptococcus pneumoniae assessed as post antibiotic effect at 10 times MIC concentration incubated for 1 hr measured after 1:1000 dilution by viable plate count method
[8] = system: Enterobacter cloacae; experiment: Antibacterial activity against Enterobacter cloacae assessed as sub-MIC effect at 0.2 times MIC concentration incubated for 1 hr by viable plate count method
[9] = system: Staphylococcus aureus; experiment: Antibacterial activity against vancomycin-sensitive methicillin-resistant Staphylococcus aureus assessed as sub-MIC effect at 0.2 times MIC concentration incubated for 1 hr by viable plate count method
[10] = system: Streptococcus pneumoniae; experiment: Antibacterial activity against penicillin-resistant Streptococcus pneumoniae by macrodilution method
[11] = system: Klebsiella pneumoniae; experiment: Antibacterial activity against Klebsiella pneumoniae assessed as post-antibiotic sub-MIC effect at 0.4 times MIC concentration pretreated with 10 times MIC concentration for 1 hr followed by 1:1000 dilution by viable plate count method
[12] = system: Enterococcus faecalis; experiment: Antibacterial activity against Enterococcus faecalis assessed as post antibiotic effect
[13] = system: Streptococcus pneumoniae; experiment: Antibacterial activity against penicillin-intermediate Streptococcus pneumoniae assessed as post-antibiotic sub-MIC effect at 0.2 times MIC concentration pretreated with 10 times MIC concentration for 1 hr followed by 1:1000 dilution by viable plate count method
[14] = system: Staphylococcus aureus; experiment: Antibacterial activity against vancomycin-sensitive methicillin-resistant Staphylococcus aureus by macrodilution method
[15] = system: Haemophilus influenzae; experiment: Antibacterial activity against beta-lactamase deficient and ampicillin-resistant Haemophilus influenzae assessed as sub-MIC effect at 0.4 times MIC concentration incubated for 1 hr by viable plate count method
[16] = system: Enterococcus faecalis; experiment: Antibacterial activity against vancomycin-resistant Enterococcus faecalis assessed as sub-MIC effect at 0.4 times MIC concentration incubated for 1 hr by viable plate count method
[17] = system: Streptococcus pneumoniae; experiment: Antibacterial activity against penicillin-resistant Streptococcus pneumoniae assessed as post-antibiotic sub-MIC effect at 0.2 times MIC concentration pretreated with 10 times MIC concentration for 1 hr followed by 1:1000 dilution by viable plate count method
[18] = system: Streptococcus pneumoniae; experiment: Antibacterial activity against penicillin-resistant Streptococcus pneumoniae assessed as sub-MIC effect at 0.3 times MIC concentration incubated for 1 hr by viable plate count method
[19] = system: Klebsiella pneumoniae; experiment: Antibacterial activity against Klebsiella pneumoniae assessed as sub-MIC effect at 0.3 times MIC concentration incubated for 1 hr by viable plate count method
[20] = system: Staphylococcus aureus; experiment: Antibacterial activity against vancomycin-intermediate methicillin-resistant Staphylococcus aureus assessed as post-antibiotic sub-MIC effect at 0.3 times MIC concentration pretreated with 10 times MIC concentration for 1 hr followed by 1:1000 dilution by viable plate count method
[21] = system: Staphylococcus aureus; experiment: Antibacterial activity against vancomycin-intermediate methicillin-resistant Staphylococcus aureus assessed as post-antibiotic sub-MIC effect at 0.4 times MIC concentration pretreated with 6 times MIC concentration for 1 hr followed by 1:1000 dilution by viable plate count method
[22] = system: Enterococcus faecalis; experiment: Antibacterial activity against vancomycin-sensitive Enterococcus faecalis assessed as post antibiotic effect at 10 times MIC concentration incubated for 1 hr measured after 1:1000 dilution by viable plate count method
[23] = system: Haemophilus influenzae; experiment: Antibacterial activity against amoxicillin, clavulanate-resistant Haemophilus influenzae expressing beta-lactamase assessed as sub-MIC effect at 0.4 times MIC concentration incubated for 1 hr by viable plate count method
[24] = system: Enterococcus faecalis; experiment: Antibacterial activity against vancomycin-resistant Enterococcus faecalis by macrodilution method
[25] = system: Streptococcus pneumoniae; experiment: Antibacterial activity against penicillin-resistant Streptococcus pneumoniae assessed as post antibiotic effect at 10 times MIC concentration incubated for 1 hr measured after 1:1000 dilution by viable plate count method
[26] = system: Escherichia coli; experiment: Antibacterial activity against Escherichia coli assessed as post-antibiotic sub-MIC effect at 0.2 times MIC concentration pretreated with 10 times MIC concentration for 1 hr followed by 1:1000 dilution by viable plate count method
[27] = system: Streptococcus pneumoniae; experiment: Antibacterial activity against penicillin-susceptible Streptococcus pneumoniae assessed as post antibiotic effect at 10 times MIC concentration incubated for 1 hr measured after 1:1000 dilution by viable plate count method
[28] = system: Streptococcus pneumoniae; experiment: Antibacterial activity against penicillin-susceptible Streptococcus pneumoniae by macrodilution method
[29] = system: Enterobacter cloacae; experiment: Antibacterial activity against Enterobacter cloacae assessed as post-antibiotic sub-MIC effect at 0.3 times MIC concentration pretreated with 10 times MIC concentration for 1 hr followed by 1:1000 dilution by viable plate count method
[30] = system: Acinetobacter baumannii; experiment: Antibacterial activity against multidrug-resistant Acinetobacter baumannii producing OXA-24 and OXA-51 beta-lactamases assessed as post antibiotic effect at 10 times MIC concentration incubated for 1 hr measured after 1:1000 dilution by viable plate count method
[31] = system: Streptococcus pneumoniae; experiment: Antibacterial activity against penicillin-susceptible Streptococcus pneumoniae assessed as post-antibiotic sub-MIC effect at 0.2 times MIC concentration pretreated with 10 times MIC concentration for 1 hr followed by 1:1000 dilution by viable plate count method
[32] = system: Enterococcus faecalis; experiment: Antibacterial activity against vancomycin-resistant Enterococcus faecalis assessed as post-antibiotic sub-MIC effect at 0.4 times MIC concentration pretreated with 10 times MIC concentration for 1 hr followed by 1:1000 dilution by viable plate count method
[33] = system: Acinetobacter baumannii; experiment: Antibacterial activity against Acinetobacter baumannii assessed as post-antibiotic sub-MIC effect at 0.3 times MIC concentration pretreated with 10 times MIC concentration for 1 hr followed by 1:1000 dilution by viable plate count method
[34] = system: Acinetobacter baumannii; experiment: Antibacterial activity against multidrug-resistant Acinetobacter baumannii producing OXA-24 and OXA-51 beta-lactamases assessed as post-antibiotic sub-MIC effect at 0.3 times MIC concentration pretreated with 10 times MIC concentration for 1 hr followed by 1:1000 dilution by viable plate count method

## CN(C)c1cc(NC(=O)CNC(C)(C)C)c(O)c2c1C[C@H]1C[C@H]3[C@H](N(C)C)C(O)=C(C(N)=O)C(=O)[C@@]3(O)C(O)=C1C2=O [TIGECYCLINE]
[1]
  PAE: 1.9 h
[2]
  PAE: 0 h
[3]
  PAE: 8.8 h
[4]
  PAE: 0.7 h
[5]
  PAE: 1.9 h
[6]
  PAE: 3.9 h
[7]
  PAE: 1.9 h
[8]
  PAE: 0.2 h
[9]
  PAE: 0.2 h
[10]
  MIC: 0.03 µg/mL (≈ 0.0512 µM)
[11]
  PAE: 2.3 h
[12]
  PAE: 1 h
[13]
  PAE: 6.1 h
[14]
  MIC: 0.12 µg/mL (≈ 0.205 µM)
[15]
  PAE: 0.8 h
[16]
  PAE: 0.4 h
[17]
  PAE: 6.7 h
[18]
  PAE: 0.5 h
[19]
  PAE: 0.4 h
[20]
  PAE: 9.9 h
[21]
  PAE: 10 h
[22]
  PAE: 3.9 h
[23]
  PAE: 1.9 h
[24]
  MIC: 0.06 µg/mL (≈ 0.102 µM)
[25]
  PAE: 4.8 h
[26]
  PAE: 2.4 h
[27]
  PAE: 3.7 h
[28]
  MIC: 0.03 µg/mL (≈ 0.0512 µM)
[29]
  PAE: 5 h
[30]
  PAE: 1.3 h
[31]
  PAE: 5.9 h
[32]
  PAE: 11 h
[33]
  PAE: 11.2 h
[34]
  PAE: 2.2 h

Source: ChEMBL document CHEMBL1629634, “Postantibiotic effect of tigecycline against 14 gram-positive organisms” (Antimicrob Agents Chemother, 2009)
